# Laboratory results published in PMC5869189 (Frontiers in Immunology, 2018).
# Test system: PBMC from healthy, seropositive donors
# Format: cell-based, human
Sequence,% Responders,Median SFC/10^6 PBMCs (IFN-g)
NASRTVSLDPRFIPPLLDTR [BPSS0530_P19],97.7%,334
SLRRAQAVKSYLVSKGVPAN [BPSL2522_P16],82.9%,317
PATANAKCDGALVAQAPAPA [BPSL2522_P7],82.9%,265
VDKQWNLKKLIFAFSAAMPA [BPSS0530_P35],90.7%,243
VGTQEVQKTTVPAQ [BPSL2522_P22],97.1%,270
LFDFDKAVLKPAGKQKLDEL [BPSL2522_P11],85.7%,408
SALSATDQANATAMVAQINA [BPSL3319_P27],86.7%,259
LEGAFYNGRRQPAPNWLGAF [BPSS1599_P9],85.4%,126
GKGAAIGAGVGALVGGVTGY [BPSL0999_P6],91.5%,357
EFVRAIDVPGLRVERIAYQN [BPSS1599_P41],87.5%,135
LRVERIAYQNNQWTLEGVLY [BPSS1599_P42],91.7%,139
TPLADDSVVRTQLLARLQWL [BPSS1599_P34],97.9%,147
ALPIARVAGRNASRTVSLDP [BPSS0530_P18],100.0%,249
RQTAMSNAQTLASQLVAAGQ [BPSL0280_P14],89.7%,565
DPLPPAMLYHELVGLLGRLS [BPSS0530_P27],86.0%,239
LAGVQVVQSNGNYSVFLSGG [BPSL0280_P22],93.1%,464
VGLQAGAQSKAIVFLFMTQD [BPSL1445_P12],93.9%,321
SDDPLPPPLETELAQAGDIA [BPSS0530_P9],90.7%,283
ETPVLPLRFEDRGDQVHICI [BPSS0530_P33],86.0%,233
APGTPRRLTIETGQLVTRLC [BPSS0530_P15],93.0%,255
VGYTDSTGSAAHNQTLSQNR [BPSL0999_P15],97.9%,367
DRELGYDHDDLQTSFEPLAM [BPSS0530_P30],88.4%,310
ALPDGRWAYFAVRDHAFMPN [BPSS1599_P11],95.8%,148

Sequence,% Responders,Median SFC/10^6 PBMCs (IFN-g)
AHNQTLSQNRAQSVVNALAQ [BPSL0999_P16],85.1%,350
NLAQQAAALPASPTWRAYRL [BPSS1599_P38],89.6%,125
ETGQLVTRLCWKSQLRSDEV [BPSS0530_P16],81.4%,266
SVLAQEAPARQHRIDMHGMR [BPSS1531_P31],88.6%,182
IVEFAKLAKQFEERDAVLLG [BPSL2096_P7],85.3%,304
VPLTAPTANDTPLADDSVVR [BPSS1599_P33],83.3%,147
RDLAVSKLSQLAGVQVVQSN [BPSL0280_P21],93.1%,493
TPEIRQDAEFGRQVYEATLC [BPSS1525_P11],84.6%,184
DRGDQVHICIVDKQWNLKKL [BPSS0530_P34],86.0%,299
AATAVMAASASAQSVPASRQ [BPSL2522_P2],88.6%,273
MSAAAQDRSIGAAQMTAAIA [BPSS1531_P20],91.4%,225
QIPYYAQSTYFEVESTDPFW [BPSS0530_P41],81.4%,292
WSDGMLIETQHFQQLERHLA [BPSS0530_P2],90.7%,260
IFAFSAAMPAEKLRQLLPQQ [BPSS0530_P36],95.3%,298
IQHVSVNNLNVGRSPEEILR [BPSL2096_P15],82.4%,314
AAQKAIDAAKSQVANDNAVA [BPSS1531_P40],85.7%,198
NNHEENGQSAFETVTEASFP [BPSL2096_P3],91.2%,308
CMDPATRAGNVRPAFIEALG [BPSS1525_P14],82.1%,200
EVPDLAVGLDAPGTPRRLTI [BPSS0530_P14],95.3%,279
KLVDLQLPGARLNALPNPPR [BPSS0530_P39],86.0%,221
FTVVAAKPGFNNHEENGQSA [BPSL2096_P2],88.2%,323
RRGGRPRTERWWALRPVERR [BPSS1599_P18],97.9%,172
KVYTEGKGKRNPVTGNTCKQ [BPSL2522_P18],94.3%,288

Sequence,% Responders,Median SFC/10^6 PBMCs (IFN-g)
AELAARPEYRELQPYARQQA [BPSS1525_P20],92.3%,216
DTDGERATLDVPLTAPTAND [BPSS1599_P32],87.5%,148
RVEVEVVGTQEVQKTTVPAQ [BPSL2522_P23],97.1%,361
QPAPNWLGAFALPDGRWAYF [BPSS1599_P10],95.8%,189
ELERQGFQNFQPKRLDDLLP [BPSS1599_P16],83.3%,142
FSKIGETLGQLFRHRAPDSA [BPSS1525_P5],89.7%,178
AGTVMNVGNQVSQAAGGIVV [BPSS1532_P54],80.6%,189
WARNGSNVRYLLVVEPGATL [BPSS1599_P30],91.7%,155
LRIVGDFPDLRFEAWGLRDGKVA [BPSS0530_P44],90.7%,225
HAEQALELRGINKPVLSNDE [BPSS1531_P26],85.7%,219
DLDQDGLGLGRLGLRHARGV [BPSS0530_P6],90.7%,288
ELQSTLRVRLASTSAQRVLS [BPSS0530_P22],88.4%,247
DAAAKLERLLPEQGPRAPLA [BPSS1599_P36],89.6%,143
KLTMLAHDAMMSAAAQDRSI [BPSS1531_P19],88.6%,226
SLSRRNELRAEAVELAKKLK [BPSS1599_P3],89.6%,156
QPKRLDDLLPRRGGRPRTER [BPSS1599_P17],83.3%,141
VLPGVDEELADRELGYDHDD [BPSS0530_P29],93.0%,234
ELCWRDAFWTPATANAKCDG [BPSL2522_P6],91.4%,291
NSYTSQIAQLNEQIASASSQ [BPSL0280_P18],93.1%,523
GALVGGVTGYNWQAIKNKLA [BPSL0999_P7],80.9%,322
KGELIDQLGVRDKEAGVALR [BPSL2096_P12],97.1%,317
GVAAAGYANTRDGFAPGHLS [BPSS1599_P6],85.4%,129
LERLHTDYAWGGWNVVIGEP [BPSS1599_P14],95.8%,157
